Measured values as given in ChEMBL document CHEMBL5046245, “Identification of Pyruvate Carboxylase as the Cellular Target of Natural Bibenzyls with Potent Anticancer Activity against Hepatocellular Carcinoma via Metabolic Reprogramming” (J Med Chem, 2022).
Activity calls are given as the source filed them. The rule behind the calls is not given here.

Experiments:
[1] = species on record: Homo sapiens; assay: Binding affinity to recombinant pyruvate carboxylase (unknown origin) assessed as thermal stability at upto 1000 nM by cellular thermal […] assay; details: dose nM <=1000
[2] = system: HepG2; assay: Induction of apoptosis in human HepG2 cells assessed as cell rounding at 100 nM incubated for 24 hrs by DAPI staining based phase contrast microscopic analysis; type: functional
[3] = Inhibition of pyruvate carboxylase in human HCCLM3 cell lysate measured upto 24 hrs by PC assay kit; type: subcellular
[4] = system: HCCLM3; assay: Inhibition of mitochondrial oxidative stress in PC knockout human HCCLM3 cells assessed as reduction in NADH/NAD ratio at 10 nM; type: functional, cell-based
[5] = system: HepG2; assay: Induction of apoptosis in human HepG2 cells assessed as increase cleaved PARP level measured after 24 hrs by Western blot analysis; type: functional, cell-based; details: dose 10-40 nM
[6] = Systemic toxicity in NCR-nu/nu mouse bearing human HCCLM3 tumor assessed as pathological change in kidney at 25 to 50 mg/kg, ip administered alternate days for 21 days and measured 26 days post implantation by H and E staining based analysis; type: organism-based; details: in vivo, 504 h, dose 25-50 mg/kg, time 21 day
[7] = system: HCCLM3; assay: Inhibition of mitochondrial oxidative stress in PC knockout human HCCLM3 cells assessed as reduction in […] ratio at 10 nM; type: functional, cell-based
[8] = Toxicity in NCR-nu/nu mouse bearing human HCCLM3 tumor assessed as effect on body weight at 25 to 50 mg/kg, ip administered alternate days for 21 days and measured every three days; type: organism-based; details: in vivo, 504 h, dose 25-50 mg/kg, time 21 day
[9] = system: HCCLM3; assay: Induction of glycolysis in human HCCLM3 cells assessed as decrease in level of aspartate at 5 nM; type: functional, cell-based
[10] = system: HepG2; assay: Induction of apoptosis in human HepG2 cells assessed as cell shrinkage at 100 nM incubated for 24 hrs by DAPI staining based phase contrast microscopic analysis; type: functional
[11] = system: HCCLM3; assay: Induction of apoptosis in human HCCLM3 cells assessed as cell rounding at 20 nM incubated for 24 hrs by DAPI staining based phase contrast microscopic analysis; type: functional
[12] = system: HCCLM3; assay: Inhibition of epithelial-mesenchymal transition in human HCCLM3 cells assessed as decrease in N-cadherin expression at 0.05 to 1 nM incubated for 24 hrs by Western blot analysis; type: functional, cell-based; details: dose 0.05-1 nM
[13] = system: SK-HEP1; assay: Antimigratory activity in human SK-HEP1 cells overexpressing PC assessed as suppression of cell migration at 0.5 nM measured after 48 hrs by wound healing assay; type: functional, cell-based
[14] = Systemic toxicity in NCR-nu/nu mouse bearing human HCCLM3 tumor assessed as pathological change in lung at 25 to 50 mg/kg, ip administered alternate days for 21 days and measured 26 days post implantation by H and E staining based analysis; type: organism-based; details: in vivo, 504 h, dose 25-50 mg/kg, time 21 day
[15] = system: HCCLM3; assay: Induction of glycolysis in PC knockout human HCCLM3 cells assessed as intracellular lactate concentration at 10 nM CheKine lactate assay; type: functional, cell-based
[16] = system: HepG2; assay: Antitumor activity against human HepG2 cells xenografted in NCR-nu/nu mouse assessed reduction in tumor growth at 25 to 50 mg/kg, ip administered alternate days for 21 days and measured 26 days post implantation; type: functional, organism-based; details: dose 25-50 mg/kg, time 21.0 day
[17] = system: HCCLM3; assay: Induction of glycolysis in human HCCLM3 cells assessed as decrease in level of serine at 5 nM; type: functional, cell-based
[18] = system: HCCLM3; assay: Induction of apoptosis in human HCCLM3 cells xenografted in NCR-nu/nu mouse assessed as increase in total apoptotic cells in tumor at 25 to 50 mg/kg, ip administered alternate days for 21 days and measured 26 days post implantation by TUNEL staining based confocal microscopic analysis; type: functional, organism-based; details: dose 25-50 mg/kg, time 21.0 day
[19] = system: HCCLM3; assay: Antitumor activity against human HCCLM3 cells xenografted in NCR-nu/nu mouse assessed reduction in tumor growth at 25 to 50 mg/kg, ip administered alternate days for 21 days and measured 26 days post implantation; type: functional, organism-based; details: dose 25-50 mg/kg, time 21.0 day
[20] = system: HepG2; assay: Inhibition of pyruvate carboxylase in human HepG2 cells measured at 0.001 to 10 nM for 24 hrs; type: cell-based; details: dose 0.001-10 nM
[21] = Antiproliferative activity against human HCCLM3 cells assessed as inhibition of cell growth measured after 48 hrs by MTT assay; type: functional, cell-based; details: HCCLM3, 48 h
[22] = system: SK-HEP1; assay: Inhibition of mesenchymal transition in human SK-HEP1 cells overexpressing PC assessed as effect on fibronectin expression; type: functional, cell-based
[23] = system: HepG2; assay: Induction of apoptosis in human HepG2 cells assessed as nuclear condensation at 100 nM incubated for 24 hrs by DAPI staining based phase contrast microscopic analysis; type: functional, cell-based
[24] = system: HCCLM3; assay: Effect on ATP production in PC knockout human HCCLM3 cells assessed as reduction in intracellular ATP level at 10 nM by CellTiter-Lumni plus cell viability assay; type: functional, cell-based
[25] = Systemic toxicity in NCR-nu/nu mouse bearing human HCCLM3 tumor assessed as pathological change in heart at 25 to 50 mg/kg, ip administered alternate days for 21 days and measured 26 days post implantation by H and E staining based analysis; type: organism-based; details: in vivo, 504 h, dose 25-50 mg/kg, time 21 day
[26] = system: HCCLM3; assay: Antimigratory activity in human HCCLM3 cells assessed as inhibition of scratch closure at 0.05 to 1 nM measured after 24 hrs by […] assay; type: functional, cell-based; details: dose 0.05-1 nM
[27] = system: HCCLM3; assay: Induction of glycolysis in human HCCLM3 cells assessed as decrease in level of acetyl-CoA at 5 nM; type: functional, cell-based
[28] = system: HCCLM3; assay: Induction of glycolysis in human HCCLM3 cells assessed as decrease in level of fumarate at 5 nM; type: functional, cell-based
[29] = target: AMP-activated protein kinase, AMPK (Homo sapiens) (UniProt P54646+O43741+P54619+Q9UGJ0+Q9Y478+Q13131+Q9UGI9); assay: Activation of AMPK pathway in human HCCLM3 cells assessed as increase in AMPK phosphorylation level at 5 nM measured after 1 hr by Western blot analysis; type: cell-based; details: filed as activator
[30] = system: HCCLM3; assay: Inhibition of epithelial-mesenchymal transition in human HCCLM3 cells assessed as upregulation of E-cadherin expression at 0.05 to 1 nM incubated for 24 hrs by Western blot analysis; type: functional, cell-based; details: dose 0.05-1 nM
[31] = system: HepG2; assay: Cytotoxicity against human HepG2 cells assessed as cell viability at 62.5 to 250 nM preincubated for 48 hrs by MTT assay; type: functional, cell-based; details: dose 62.5-250 nM
[32] = system: SK-HEP1; assay: Antiproliferative activity against human SK-HEP1 cells assessed as inhibition of cell growth measured after 48 hrs by MTT assay; type: functional, cell-based; details: SK-HEP1, 48 h
[33] = Antitumor activity against human HCCLM3 cells xenografted in NCR-nu/nu mouse assessed wet tumor weight at 50 mg/kg, ip administered alternate days for 21 days and measured 26 days post implantation (Rvb= 1.835 +/- 0.15 g); type: functional; details: time 21 day
[34] = system: HCCLM3; assay: Induction of glycolysis in human HCCLM3 cells assessed as decrease in level of succinate at 5 nM; type: functional, cell-based
[35] = system: HepG2; assay: Effect on cell cycle arrest in human HepG2 cells assessed as decrease in accumulation of cells at G0/G1 phase incubated for 24 hrs by propidium iodide staining based flow cytometry analysis; type: functional; details: dose 20-80 nM
[36] = system: HCCLM3; assay: Reversal of H2O2-induced cell death in human HCCLM3 cells at 10 nM pretreated for 24 hrs followed by H2O2 addition and further incubated for 24 hrs in presence of OAA by MTT assay; type: functional, cell-based; details: time 48.0 hrs

COc1ccc(CCc2cc(OC)c(OC)c(OC)c2)cc1O
Activity [1]: Active
Activity [2]: Active
IC50 [3]: 5.18 nM
inhibition [4]: Active
Activity [5]: Dose-Dependent Effect
Activity [6]: Non-Toxic
inhibition [7]: Active
Activity [8]: Non-Toxic
Activity [9]: Active
Activity [10]: Active
Activity [11]: Active
inhibition [12]: Active
Activity [13]: Active
Activity [14]: Non-Toxic
Activity [15]: Active
Activity [16]: Active
Activity [17]: Active
Activity [18]: Active
Activity [19]: Active
inhibition [20]: inactive
IC50 [21]: 17.7 nM
inhibition [22]: inactive
Activity [23]: Active
Activity [24]: Active
Activity [25]: Non-Toxic
Activity [26]: Active
Activity [27]: Active
Activity [28]: Active
Activity [29]: Active
inhibition [30]: Active
Activity [31]: Active
IC50 [32]: 757 nM
Activity [33]: 0.695 g
Activity [34]: Active
Activity [35]: Dose-Dependent Effect
Activity [36]: Active
